Experimental data published in article PMC4467156, “A new chemical inhibitor of angiogenesis and tumorigenesis that targets the VEGF signaling pathway upstream of Ras” (Oncotarget, 2015).

Experiments:
[1] = tested on: src phosphorylation; experiment: src phosphorylation in HUVECs; assay type: cell-based, human; conditions: data not shown
[2] = tested on: embryoid bodies derived from mouse embryonic stem cells; experiment: Vascular sprouting of embryoid bodies into collagen gels; assay type: cell-based; conditions: 12.5 μM COB223 added at day 6
Procedure: CJ7 cells (1000 cells/well; 12-well plates) were allowed to differentiate in collagen gels in Iscove's medium containing Glutamax (Iscove's modified Dulbecco's medium; Invitrogen) supplemented with 1.2 mg/mL collagen I (BD Biosciences, Bedford, MA), 15% fetal calf serum (Invitrogen), 450 μM monothioglycerol (Sigma-Aldrich), 10 μg/mL insulin (Roche Diagnostics, Basel, Switzerland), 50 U/mL penicillin and 50 μg/mL streptomycin (Invitrogen), as previously described. A cocktail of growth factors was also added containing 50 ng/mL human VEGF-A (AbCys) and 100 ng/mL human FGF-2 (a generous gift from Dr. A. Baird, Whittier Institute, La Jolla, CA). At day 6, molecules were added with a novel addition of 50 ng/mL human VEGF-A and 100 ng/mL human FGF-2. Differentiation was allowed during 11 days.
Collagen gels containing EBs were dehydrated and fixed in 4% paraformaldehyde during 15 min at room temperature. […] For quantitation of endothelial sprouting, images were captured with a digital camera and measurement of the total length of endothelial sprouts was achieved by morphometric analysis using ImageJ software.

[3] = biological target: Raf; experiment: In vitro kinase assay Raf; assay type: biochemical; conditions: concentrations up to 50 μM
Procedure: (§1) We first wondered whether COB223 required to be internalized to exert its biological effect. For this, we synthesized a covalent complex between BSA and COB223 and purified it. […] In vitro kinase assays were performed with a panel of purified protein-kinases involved in mitogenic signaling, including VEGFR2, FGFR1, FGFR2, PDGFRß, Met, Raf, MEK1, ERK1, ERK2, PKCα, PKCβI, PKCβII, PKCζ as indicated in Table 2. […] We then analyzed the effect of COB223 on VEGF-induced phosphorylations of VEGFR2, MEK and ERK1/2 (Figure 9). […] (Figure 9A, 9B). […] It was also specific of the p42/p44 MAP kinase pathway as activation of p38 MAP kinase phosphorylation in HUVEC cells by VEGF or serum was unaffected by COB223 (data not shown). The activation of src phosphorylation by VEGF in HUVECs was also unaffected by COB223 (data not shown).

[4] = biological target: PKC ζ (Homo sapiens, UniProt Q05513); experiment: In vitro kinase assay PKC ζ; assay type: biochemical; conditions: concentrations up to 50 μM
Procedure: as §1

[5] = tested on: ERK1/2 phosphorylation; experiment: ERK1/2 phosphorylation in 3T3 fibroblasts; assay type: cell-based; conditions: data not shown
[6] = tested on: Raf phosphorylation; experiment: Western blot, Raf phosphorylation in HUVEC; assay type: cell-based, human; conditions: 10 ng/mL VEGF-A 15 min, 25 μM COB223
Procedure: (§2) Figure 11 Effect of COB223 on mitogenic or oncogenic activation of the Ras /MEK/ERK signaling pathway (A) Serum-starved HUVEC cells were incubated for 15 min in the presence of 10 ng/mL VEGF-A and in the absence or the presence of 25 μM COB223. The phosphorylations of PLCγ on tyrosine 783, of Raf on serine 338 or on serine 259 and of ERK1/2 were then analyzed by Western blot analysis of the cell lysates as described in Material and Methods. Western blots for total PLCγ, Raf and ERK1/2 were used as loading controls. (B) MCF10A cells overexpressing an oncogenic version of Ras (MCF10A-RasG12V) were treated for the indicated periods of time by 25 μM COB223. Total ERK1/2 and phospho-ERK1/2 were then visualized by Western blotting of the cell extracts. Non-treated regular MCF10A cells were analyzed as a control (first lane). (C) CCL-39 fibroblasts expressing a constitutively active Raf in an estrogen-responsive manner were stimulated for 3 h with estradiol and treated for 15 or 30 min with 25 μM COB223. Total ERK1/2 and phospho-ERK1/2 were then visualized by Western blotting of the cell extracts. Non-treated cells were analyzed as a control (left lanes).
(§3) Serum-starved HUVEC cells were incubated for 15 min in the presence of either 10 ng/mL VEGF-A or 20 ng/mL FGF-2 and in the absence or the presence of indicated concentration of COB223. COB223 was incubated 15 min prior to stimulation. […]

[7] = biological target: PDGFRß (Homo sapiens, UniProt P09619); experiment: In vitro kinase assay PDGFRß; assay type: biochemical; conditions: concentrations up to 50 μM
Procedure: as §1

[8] = tested on: PLCγ phosphorylation; experiment: Western blot, PLCγ phosphorylation in HUVEC; assay type: cell-based, human; conditions: 10 ng/mL VEGF-A 15 min, 25 μM COB223
Procedure: as §2, §3

[9] = tested on: ERK1/2 phosphorylation; experiment: ERK1/2 phosphorylation in MCF-10A cells expressing oncogenic RasG12V; assay type: cell-based; conditions: 25 μM COB223
Procedure: as §2

Chain of PKC ζ (Q05513 whole entry): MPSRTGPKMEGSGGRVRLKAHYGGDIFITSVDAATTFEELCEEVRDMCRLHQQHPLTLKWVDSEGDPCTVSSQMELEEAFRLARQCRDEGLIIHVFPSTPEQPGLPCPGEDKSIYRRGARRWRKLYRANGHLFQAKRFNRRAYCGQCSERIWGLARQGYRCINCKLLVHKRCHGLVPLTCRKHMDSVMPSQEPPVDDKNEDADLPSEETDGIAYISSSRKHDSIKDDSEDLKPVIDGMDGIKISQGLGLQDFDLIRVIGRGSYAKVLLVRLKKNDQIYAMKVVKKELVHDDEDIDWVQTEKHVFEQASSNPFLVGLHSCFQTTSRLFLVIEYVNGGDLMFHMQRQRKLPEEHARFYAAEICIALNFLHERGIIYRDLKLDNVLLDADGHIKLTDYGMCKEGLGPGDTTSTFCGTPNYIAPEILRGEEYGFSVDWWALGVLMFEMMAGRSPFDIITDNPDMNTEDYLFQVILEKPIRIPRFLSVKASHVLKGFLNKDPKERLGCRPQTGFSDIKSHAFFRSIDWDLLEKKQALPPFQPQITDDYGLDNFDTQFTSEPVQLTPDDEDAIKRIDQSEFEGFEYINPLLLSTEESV
Chain of PDGFRß (P09619 33-1106, species assumed): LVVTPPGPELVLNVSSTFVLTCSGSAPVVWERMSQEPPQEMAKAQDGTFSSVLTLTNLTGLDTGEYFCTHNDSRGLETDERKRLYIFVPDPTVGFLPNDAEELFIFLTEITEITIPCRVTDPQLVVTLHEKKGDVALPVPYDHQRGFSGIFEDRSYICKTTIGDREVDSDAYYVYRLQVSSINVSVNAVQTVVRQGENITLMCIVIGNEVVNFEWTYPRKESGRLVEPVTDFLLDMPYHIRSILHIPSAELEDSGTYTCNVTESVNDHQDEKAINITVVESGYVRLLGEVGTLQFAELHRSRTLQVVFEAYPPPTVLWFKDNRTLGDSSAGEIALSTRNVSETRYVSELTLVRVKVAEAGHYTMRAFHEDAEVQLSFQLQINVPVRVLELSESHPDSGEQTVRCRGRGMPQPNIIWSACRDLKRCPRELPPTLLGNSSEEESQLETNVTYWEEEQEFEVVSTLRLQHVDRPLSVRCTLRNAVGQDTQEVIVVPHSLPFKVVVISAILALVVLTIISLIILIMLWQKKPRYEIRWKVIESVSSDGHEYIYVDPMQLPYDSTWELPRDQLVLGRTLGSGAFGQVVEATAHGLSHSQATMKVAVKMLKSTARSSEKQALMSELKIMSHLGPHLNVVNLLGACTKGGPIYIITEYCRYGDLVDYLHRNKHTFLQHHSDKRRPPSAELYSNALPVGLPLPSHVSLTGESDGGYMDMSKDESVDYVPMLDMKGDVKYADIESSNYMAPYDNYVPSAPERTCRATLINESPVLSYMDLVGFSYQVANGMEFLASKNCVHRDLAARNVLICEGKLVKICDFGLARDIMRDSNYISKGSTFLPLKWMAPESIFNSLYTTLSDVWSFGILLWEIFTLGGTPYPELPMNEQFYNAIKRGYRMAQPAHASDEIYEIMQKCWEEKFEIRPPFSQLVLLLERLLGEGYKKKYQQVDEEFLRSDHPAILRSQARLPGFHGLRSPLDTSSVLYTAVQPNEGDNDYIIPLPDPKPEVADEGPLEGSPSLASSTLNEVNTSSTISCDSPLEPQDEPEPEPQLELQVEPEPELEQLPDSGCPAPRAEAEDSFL

Structure (SMILES): CN(C)c1cccc2c(S(=O)(=O)NCCCN3CCN(CCCNC(=O)OC(C)(C)C)CC3)cccc12 [COB223, tert-Butyl 3-(4-(3-(5-(dimethylamino)naphthalene-1-sulfonamido)propyl)piperazin-1-yl) propylcarbamate]
- activation of src phosphorylation by VEGF [1]: unaffected
- endothelial sprouting (CD31 immunostaining) [2]: complete inhibition
- kinase inhibition [3]: None of them was inhibited
- kinase inhibition [4]: None of them was inhibited
- FGF2-induced or serum-induced phosphorylation of ERK1/2 [5]: did not affect
- phosphorylation of Raf on residue S338 [6]: inhibited
- kinase inhibition [7]: None of them was inhibited
- VEGF-induced tyrosine phosphorylation of PLCγ on residue Y783 [8]: unaffected
- constitutive phosphorylation of ERK1/2 induced by oncogenic RasG12V [9]: did not modify
